pKi: −log10 of the molar value. Where two headings read alike, the source gives them in different places.
Target: T1, human growth hormone secretagogue receptor (hGHS-R1a) (Homo sapiens, UniProt Q92847)
T1 construct: purchased PerkinElmer BioSignal #RBHGHSM, lot#1887; host or cells: HEK-293, stably transfected (membranes)
Test: Competitive radioligand binding assay (ghrelin receptor), [125I]-ghrelin displacement on GHS-R/HEK 293 membranes
Description: The competitive binding assay at the human growth hormone secretagogue receptor (hGHS-R1a) was carried out analogously to assays described in the literature.
Multiscreen Harvest plates-GF/C (Millipore, #MAHFC 1H60) • 4. […] Bottom seal (Millipore, #MATAH0P00) • 7. […] Binding Buffer: 25 mM Hepes (pH 7.4), 1 mM CaCl2, 5 mM MgCl2, 2.5 mM EDTA, 0.4% BSA Assay Volumes
Competition experiments were performed in a 300 μl filtration assay format. • 1. 220 μL of membranes diluted in binding buffer • 2. 40 μL of compound diluted in binding buffer • 3. […] Compound Handling
Compounds were provided frozen on dry ice at a stock concentration of 10 mM diluted in 100% DMSO and stored at −80° C. until the day of testing. On the test day, compounds were allowed to thaw at rt O/N and then diluted in assay buffer according to the desired test concentrations.
Plates were sealed with TopSeal-A, vortexed gently and incubated at rt for 30 min. The reaction was arrested by filtering samples through Multiscreen Harvest plates (pre-soaked in 0.5% polyethyleneimine) using a Tomtec Harvester, washed 9 times with 500 μL of cold 50 mM Tris-HCl (pH 7.4, 4° C.), and then plates were air-dried in a fumehood for 30 min. A bottom seal was applied to the plates prior to the addition of 25 μL of MicroScint-0 to each well. […] Results were expressed as counts per minute (cpm).
Data were analyzed by GraphPad Prism (GraphPad Software, San Diego, Calif.) using a variable slope non-linear regression analysis.
• 1. […] Key Aspects of Method • 1. […] Results

[1] = binding activity at the human ghrelin receptor, [125I]-ghrelin competition, GHS-R/HEK 293 membranes, read-out: Ki
[2] = Table 3C (compounds 18, 334-397), human ghrelin receptor, read-out: Ki
[3] = [125I]-ghrelin competition, GHS-R/HEK 293 membranes, Table 3A, read-out: Binding Activity at the Human Ghrelin Receptor
[4] = Table 3E, human ghrelin receptor, read-out: Ki
[5] = binding activity at the human ghrelin receptor, [125I]-ghrelin displacement, read-out: Ki
[6] = second table titled 3C (compounds 435-449), human ghrelin receptor, read-out: Ki

T1 sequence (Q92847 whole entry): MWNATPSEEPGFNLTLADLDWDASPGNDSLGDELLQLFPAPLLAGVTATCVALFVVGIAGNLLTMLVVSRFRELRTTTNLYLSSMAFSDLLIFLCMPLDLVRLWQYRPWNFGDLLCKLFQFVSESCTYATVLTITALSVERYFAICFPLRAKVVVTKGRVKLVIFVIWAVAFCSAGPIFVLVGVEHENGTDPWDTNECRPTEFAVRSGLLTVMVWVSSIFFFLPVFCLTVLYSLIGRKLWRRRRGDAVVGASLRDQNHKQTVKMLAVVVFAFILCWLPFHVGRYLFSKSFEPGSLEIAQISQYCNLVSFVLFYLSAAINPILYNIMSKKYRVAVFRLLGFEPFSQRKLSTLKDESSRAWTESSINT

| SMILES | pKi [1] | other results |
| --- | --- | --- |
| CC1(C)NCCOc2ccccc2C=CCNC(=O)[C@H](Cc2cccc(Cl)c2)NC(=O)C2(CCCC2)NC1=O (stereo in doubt) [compound 349] |  | pKi [2]: 7.00 to 8.00 |
| CCC(C)C1NCCOc2ccccc2CCCNC(=O)C(Cc2ccccc2)NC(=O)C(CC(C)C)N(C)C1=O (centres unmarked) [compound 147] | < 6.00 |  |
| CCCC[C@H]1NC(=O)CN(C)C(=O)[C@H](CCC)NCCOc2ccccc2CCCNC1=O [compound 52] | 6.00 to 7.00 |  |
| CCC(C)C1NC(=O)C2(CCCC2)NC(=O)C(CC(C)C)NCCOc2ccccc2C=CCNC1=O (centres unmarked) [compound 167] |  | pKi [3]: < 5.00 |
| CC(C)[C@@H]1NCCOc2ccccc2CCCNC(=O)[C@H](Cc2ccccc2)NC(=O)C2(CC2)NC1=O [compound 216] |  | pKi [3]: 5.00 to 6.00 |
| C[C@@H]1C(=O)N[C@H](Cc2ccccc2)C(=O)NCCCc2ccccc2OCCN2CCC[C@H]2C(=O)N1C |  | pKi [4]: 6.00 to 7.00 |
| CCC(C)C1NCCOc2ccccc2CCCNC(=O)C(Cc2ccccn2)NC(=O)C(C)N(C)C1=O (centres unmarked) [compound 32] | 7.00 to 8.00 |  |
| CC[C@@H]1NC(=O)C2(CCCC2)NC(=O)[C@H](CC(C)C)NCCOc2ccccc2C=CCNC1=O (stereo in doubt) [compound 165] |  | pKi [3]: < 5.00 |
| C[C@@H]1C(=O)N[C@H](Cc2cc(F)cc(F)c2)C(=O)NCCCc2ccccc2OCCN[C@@H](C2CC2)C(=O)N1C [compound 317] |  | pKi [5]: 7.00 to 8.00 |
| CC[C@H](C)[C@@H]1NCCOc2ccccc2C=CCNC(=O)[C@H](Cc2ccccc2)NC(=O)[C@@H](C)NC1=O (stereo in doubt) [compound 14] | 6.00 to 7.00 |  |
| CC[C@H]1NC(=O)[C@@H](C)N(C)C(=O)[C@H]([C@@H](C)CC)NCCOc2ccccc2CCCNC1=O [compound 205] |  | pKi [3]: < 5.00 |
| CCC(C)C1NCCOc2ccccc2CCCNC(=O)C(Cc2ccccc2)NC(=O)C(C(C)C)N(C)C1=O (single isomer, unassigned) [145b] | < 6.00 |  |
| CC(C)CC1NCCOc2ccccc2C=CCNC(=O)C(CC(C)C)NC(=O)C2(CCCC2)NC1=O (centres unmarked) [compound 47] | < 5.00 |  |
| O=C1NC/C=C/c2ccccc2OCCNC2(CCCC2)C(=O)NC2(CCCC2)C(=O)N[C@H]1Cc1cccc(Cl)c1 [compound 437] |  | pKi [6]: 8.00 to 10.00 |
| CCC(C)C1NCCOc2ncccc2CCCNC(=O)C(Cc2cccc(Cl)c2)NC(=O)C2(CCCC2)NC1=O (centres unmarked) [compound 449] |  | pKi [6]: 5.00 to 6.00 |
| C[C@@H]1NCCOc2ccccc2CCCNC(=O)[C@H](Cc2ccccc2)NC(=O)C2(CCCC2)NC1=O [compound 100] | 6.00 to 7.00 |  |
| C[C@@H]1C(=O)N[C@H](Cc2ccc(I)cc2)C(=O)NCCCc2ccccc2OCCN[C@@H](C2CC2)C(=O)N1C [compound 320] |  | pKi [5]: 8.00 to 10.00 |
| CCC(C)C1NCCOc2ccccc2CCCNC(=O)C(Cc2ccccc2)NC(=O)C(CC)N(C)C1=O (centres unmarked) [compound 41] | 7.00 to 8.00 |  |
| CCC(C)C1NCCc2ccccc2CCCCNC(=O)C(Cc2ccccc2)NC(=O)C(C)N(C)C1=O (single isomer, unassigned) [189a] |  | pKi [3]: 6.00 to 7.00 |
| CCC(C)C1NCCOc2ccccc2C=CCNC(=O)C(Cc2cccc(OC)c2)NC(=O)C2(CCCC2)NC1=O (centres unmarked) [compound 328] |  | pKi [5]: 7.00 to 8.00 |
| CCC(C)C1NCCOc2ccccc2/C=C/CNC(=O)C(COC)NC(=O)C2(CCCC2)NC1=O (single isomer, unassigned) [443a] |  | pKi [6]: < 5.00 |
| CCC1NCCOc2ccccc2C=CCNC(=O)C(Cc2ccccc2)NC(=O)C2(CCCC2)NC1=O (single isomer, unassigned) [136a] | 7.00 to 8.00 |  |

| SMILES | pKi [1] | other results |
| --- | --- | --- |
| C[C@@H]1C(=O)N[C@H](Cc2cc(F)c(F)c(F)c2)C(=O)NCCCc2ccccc2OCCN[C@@H](C2CC2)C(=O)N1C [compound 391] |  | pKi [5]: 8.00 to 10.00 |
| C[C@@H]1C(=O)N[C@H](Cc2ccccc2)C(=O)NCCCc2ccccc2OCCN[C@@H]([C@@H](C)O)C(=O)N1C [compound 119] | 6.00 to 7.00 |  |
| CCCC1NCc2cccc(c2)CCNC(=O)C(Cc2ccccc2)NC(=O)CN(C)C1=O (centres unmarked) [compound 85] | < 5.00 |  |
| CC(C)C1NCCOc2ccccc2C=CCNC(=O)C(Cc2ccccc2)NC(=O)C2(CCNCC2)NC1=O (stereo in doubt) [compound 211] |  | pKi [3]: < 6.00 |
| CC[C@@H](C)[C@H]1NC(=O)[C@@H](C)N(C)C(=O)[C@H]([C@@H](C)CC)NCCOc2ccccc2CCCNC1=O [compound 175] |  | pKi [3]: 6.00 to 7.00 |
| CCC[C@@H]1NCCOc2ccccc2CCCNC(=O)[C@@H](Cc2ccccc2)NC(=O)[C@@H](C)NC1=O [compound 60] | 6.00 to 7.00 |  |
| C[C@@H]1C(=O)N[C@H](Cc2ccc(C#N)cc2)C(=O)NCCCc2ccccc2OCCN[C@@H](C2CC2)C(=O)N1C [compound 321] |  | pKi [5]: 7.00 to 8.00 |
| CC(C)CC1NCCOc2ccccc2CCCNC(=O)C(CCCCN)NC(=O)C2(CCCC2)NC1=O (centres unmarked) [compound 91] | < 5.00 |  |
| CC(C)CC1NCc2ccc(cc2)CCNC(=O)C(Cc2ccccc2)NC(=O)C2(CCCC2)NC1=O (centres unmarked) [compound 115] | < 5.00 |  |
| C[C@@H]1C(=O)N[C@H](Cc2ccc(F)cc2)C(=O)NCCCc2ccccc2OCCN[C@@H](C2CC2)C(=O)N1C [compound 309] |  | pKi [5]: 8.00 to 10.00 |
| O=C1NC2(CCCC2)C(=O)NC(Cc2ccccc2)C(=O)NCC=Cc2ccccc2OCCNC1Cc1cccc2ccccc12 (centres unmarked) [compound 130] | 5.00 to 6.00 |  |
| CCC(C)C1NCCOc2ccccc2CCCNC(=O)C(Cc2ccccc2)NC(=O)C2CSCN2C1=O (centres unmarked) [compound 213] |  | pKi [3]: < 6.00 |
| CCC[C@@H]1NCCOc2ccccc2CCCNC(=O)[C@@H](Cc2ccccc2)NC(=O)[C@@H]2CCCN2C1=O |  | pKi [4]: 5.00 to 6.00 |
| CCC(C)[C@@H]1NCCOc2ccccc2CCCNC(=O)[C@@H](Cc2ccccc2)N2CC[C@@H](NC1=O)C2=O (some centres unmarked) |  | pKi [4]: 6.00 to 7.00 |
| O=C1NC2(CCCC2)C(=O)N[C@@H](Cc2ccccc2)C(=O)NCC=Cc2ccccc2OCCN[C@H]1Cc1cccc(Cl)c1 (stereo in doubt) [compound 123] | 6.00 to 7.00 |  |
| CCC1NC(=O)C(C)N(C)C(=O)C(C(C)CC)NCCOc2ccccc2CCCNC1=O (centres unmarked) [compound 172] |  | pKi [3]: < 5.00 |
| CCC(C)[C@@H]1NCCOc2ccccc2CCCNC(=O)[C@@H](Cc2ccccc2)NC(=O)[C@H]2C[C@H](O)CN2C1=O (some centres unmarked) |  | pKi [4]: < 5.00 |
| CSCC[C@@H]1NCCOc2ccccc2CCCNC(=O)[C@@H](Cc2ccc(F)cc2)NC(=O)[C@@H](C)N(C)C1=O [compound 340] |  | pKi [5]: 7.00 to 8.00 |
| CCC(C)C1NCCOc2ccccc2C=CCNC(=O)C(Cc2cccc(F)c2)NC(=O)C2(CCCC2)NC1=O (centres unmarked) [compound 325] |  | pKi [5]: 7.00 to 8.00 |
| CC(C)C[C@H]1C(=O)NC2(CCCC2)C(=O)N[C@@H](Cc2ccccc2)C(=O)NCC=Cc2ccccc2OCCN1C (stereo in doubt) [compound 203] |  | pKi [3]: 5.00 to 6.00 |
| O=C(O)CC[C@@H]1NCCOc2ccccc2CCCNC(=O)[C@H](Cc2ccccc2)NC(=O)C2(CCCC2)NC1=O [compound 104] | < 5.00 |  |
| C[C@@H]1NC(=O)C2(CCCC2)NCCOc2ccccc2C=CCNC(=O)[C@H](Cc2cccc(Cl)c2)NC1=O (stereo in doubt) [compound 352] |  | pKi [2]: 6.00 to 7.00 |

The next lines start with results.

| pKi [1] | SMILES | other results |
| --- | --- | --- |
| < 5.00 | NCCCC[C@@H]1NCCOc2ccccc2CCCNC(=O)[C@H](Cc2ccccc2)NC(=O)C2(CCCC2)NC1=O [compound 103] |  |
| 6.00 to 7.00 | CCC1NCCOc2ccccc2/C=C/CNC(=O)C(Cc2ccccc2)NC(=O)C2(CCCC2)NC1=O (single isomer, unassigned) [136b] |  |
| < 5.00 | CC(C)C[C@@H]1NCCOc2ccccc2CCCNC(=O)[C@H](CCC(=O)O)NC(=O)C2(CCCC2)NC1=O [compound 92] |  |
| < 5.00 | CCC[C@@H]1NCCOc2ccccc2CCCNC(=O)[C@@H](C)NC(=O)CN(C)C1=O [compound 49] |  |
| 5.00 to 6.00 | CCC(C)C1NCCOc2ccccc2CCCNC(=O)C(Cc2ccccc2)NC(=O)C(C(C)CC)N(C)C1=O (centres unmarked) [compound 149] |  |
| < 6.00 | O=C1NC2(CCCC2)C(=O)N[C@@H](Cc2ccccc2)C(=O)NCC=Cc2ccccc2OCCN[C@H]1Cc1ccncc1 (stereo in doubt) [compound 133] |  |
| 5.00 to 6.00 | CC(C)C[C@@H]1NCCOc2ccccc2CCCNC(=O)[C@H](CCc2ccccc2)NC(=O)C2(CCCC2)NC1=O [compound 90] |  |
| 5.00 to 6.00 | CCC[C@@H]1NCCOc2ccccc2CCCNC(=O)[C@@H](Cc2ccccc2)NC(=O)[C@H](C)NC1=O [compound 59] |  |
| 6.00 to 7.00 | O=C1NC2(CCCC2)C(=O)N[C@@H](Cc2ccccc2)C(=O)NCC=Cc2ccccc2OCCN[C@H]1CCc1ccccc1 (stereo in doubt) [compound 126] |  |
| < 5.00 | O=C1NC2(CCCC2)C(=O)N[C@@H](Cc2ccccc2)C(=O)NCC=Cc2ccccc2OCCN[C@H]1Cc1ccc(-c2ccccc2)cc1 (stereo in doubt) [compound 128] |  |
| < 6.00 | O=C1NC2(CCCC2)C(=O)N[C@@H](Cc2ccccc2)C(=O)NC/C=C/c2ccccc2OCCN[C@H]1Cc1cccnc1 [compound 132] |  |
| < 5.00 | CCC[C@@H]1NCCOc2ccccc2CCCNC(=O)[C@@H](Cc2ccccc2)NC(=O)[C@H](Cc2ccccc2)NC1=O [compound 64] |  |

Source: patent US20060025566A1, “Macrocyclic modulators of the ghrelin receptor” (Tranzyme Pharma Inc., priority 2003, published 2006)
